The values below come from patent publication US20040259865A1, “Pyrimidone compounds and pharmaceutical compositions containing the same” (priority 2001, published 2004).

Broadly, the pKi is −log10 of the Ki, conventionally taken in molar units. Read a low pKi as a large Ki. By pIC50 is commonly meant the negative decadic logarithm of the IC50, by convention in mol/L.

pIC50, pKi: −log10 of the molar value. Several values for one entry are separate records, joined by “and”; a condition that tells them apart may be missing. Identical values can stand only once.

One data set has as its system colon tract. As to the kind of experiment: Inhibitory effect of adenosine receptor antagonist on suppressing action of NECA on Carbachol-stimulated contraction of the colon tract. Set-up: species or system rat. Conditions: for Contraction (%) Mean: Carbachol 0.3 μM + NECA 1 μM = 0%, Carbachol 0.3 μM = 100%; for Inhibition of the suppressing effect of NECA on the contraction (in words): rat colon tract, Carbachol + NECA. As for the experimental part:
The abdomen of a rat under anesthesia with ether was opened, and from the rectum to the cecum was excised therefrom and soaked in ice-cooled Tyrode solution (containing 136 mM NaCl, 2.7 mM KCl, 0.4 mM NaH2PO4.2H2O, 5.6 mM glucose, 11.9 mM NaHCO3, 1 mM MgCl2.6H2O, 1.8 mM CaCl2). Surrounding connective tissues were removed, and the intestinal tract was cut at positions apart by 1.5 cm from the rectum and by 3 cm from the cecum, to give a colon tract of about 3 cm in full length. Both the terminals of the colon tract were pinched respectively with Serrefines (trade name) to which a string had been connected, and the colon tract with the side of the cecum facing upward was immediately suspended in a Magnus tube filled with Tyrode solution previously warmed at 37° C., and then equilibrated by bubbling with a gas (O2/CO2=95/5). The string connected to the Serrefines (trade name) at the side of the cecum was suspended, and the change in the length of the colon tract was detected with an amplifier for strain pressure (Nihon Kohden Corporation).
In the experiment, 3 samples were used.

Data set [1] deals with SD IGS rats. As to the kind of experiment: Defecation-promoting action in rat (Test Example 2). Conditions: for The number of fecalpellets/3 rats: 180 minutes after administration; for Defecation-promoting action (in words): Table 4. Type of data set: in vivo. As for the experimental part:
(§1) SD IGS rats (6-weeks-old, from Charles River) were placed in cages (3 animals/cage) and preliminarily allowed food and water ad libitum and raised for 1 week. On the day of the experiment, their weight was measured, a water-absorbing sheet was placed below each cage, and the animals were fasted but allowed water ad libitum throughout the experiment. Three hours after fasting was initiated, the fecal pellets were recovered from each cage and observed for abnormality before the experiment, and then the compound suspended or dissolved in 0.5% (W/V) methyl cellulose (MC) was orally administered into each rat in a dose of 5 ml/kg. On one hand, 0.5% (W/V) MC only was orally given to the control group. After administering the compound, the rats were returned to the cage provided with anew water-absorbing sheet of known weight, and 180 minutes after the administration, the fecal pellets on the water-absorbing sheet were recovered from each cage, and the external appearance was observed, and the number of fecal pellets was counted. The number of fecal pellets is expressed per each cage (Table 4). After the fecal pellets were recovered, the water-absorbing sheet was weighed, and the weight determined by subtracting the initial weight of the water-adsorbing sheet from the weight after the experiment was regarded as the volume of urine and expressed as the volume of urine per 100 g of the body weight (Table 4).

Data set [2] can be described thus: Urine volume / diuretic action in rat (Test Example 2). Type of data set: in vivo. Particulars: for Urine Volume (g/100 g body weight): 180 minutes. As for the experimental part:
as §1

Data set [3] deals with SD IGS rats. As to the kind of experiment: Contribution of A2b inhibition to defecation-promoting action (Test Example 3). In kind it is in vivo, rat. Particulars: 180 minutes. As for the experimental part:
as §1
After administering the compounds, the rats were returned to the cage under which a new water-absorbing sheet had been installed, and after 180 minutes, the fecal pellets on the water-absorbing sheet were recovered from each cage, and the outward appearance was observed and the number of fecal pellets was counted. The number of fecal pellets is expressed per cage (Table 5).

In data set [4] the target is T1, human adenosine A1 receptor (Homo sapiens, UniProt P30542).
T1 sequence (P30542 1-326): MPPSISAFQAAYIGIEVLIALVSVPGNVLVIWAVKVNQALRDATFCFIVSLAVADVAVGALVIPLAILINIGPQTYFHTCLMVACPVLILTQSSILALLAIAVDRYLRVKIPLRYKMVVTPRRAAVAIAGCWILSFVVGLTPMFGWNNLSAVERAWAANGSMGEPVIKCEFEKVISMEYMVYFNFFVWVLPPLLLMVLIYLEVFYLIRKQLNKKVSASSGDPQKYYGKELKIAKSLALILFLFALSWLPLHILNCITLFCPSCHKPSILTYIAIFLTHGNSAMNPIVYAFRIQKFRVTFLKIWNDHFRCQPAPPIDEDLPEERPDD
As to the kind of experiment: Ability to bind to adenosine A1 receptor (3H-CCPA). Type of data set: binding. Conditions: CHOK1 membranes, Cheng-Prusoff. As for the experimental part: To 0.45 ml of this membrane sample suspension were added 0.025 ml of 60 nM tritium-labeled chlorocyclopentyl adenosine (3H-CCPA, from NEN Ltd.) and 0.025 ml test compound. This mixture was left at 30° C. for 120 minutes, filtered rapidly under suction through a glass fiber filter (GF/B, from Whatman), and immediately washed twice with 5 ml of 50 mM water-cooled Tris-HCl buffer. Thereafter, the glass fiber filter was transferred to a vial, a scintillator was added thereto, and the radioactivity on the filter was measured by a liquid scintillation counter.
Inhibition (%)=[1−{binding in the presence of the test compound-non-specific binding)/(total binding-non-specific binding)}]×100
In the above formula, the total binding means ^3H—CCPA-bound radioactivity in the absence of the test compound; the non-specific binding means ^3H-CCPA-bound radioactivity in the presence of 100 μM RPIA ([R]-[1-methyl-2-phenylethyl]adenosine); and the binding in the presence of the test compound means ^3H-CCPA-bound radioactivity in the […] of the test compound at predetermined concentrations. The inhibition constant (Ki value) in the table was determined from the formula of Cheng-Prusoff.

The target of data set [5] is T2, human adenosine A2b receptor (Homo sapiens, UniProt P29275).
T2 construct: expressed in transfected cells; host or cells: CHOK1 cells
T2 sequence (P29275 1-332): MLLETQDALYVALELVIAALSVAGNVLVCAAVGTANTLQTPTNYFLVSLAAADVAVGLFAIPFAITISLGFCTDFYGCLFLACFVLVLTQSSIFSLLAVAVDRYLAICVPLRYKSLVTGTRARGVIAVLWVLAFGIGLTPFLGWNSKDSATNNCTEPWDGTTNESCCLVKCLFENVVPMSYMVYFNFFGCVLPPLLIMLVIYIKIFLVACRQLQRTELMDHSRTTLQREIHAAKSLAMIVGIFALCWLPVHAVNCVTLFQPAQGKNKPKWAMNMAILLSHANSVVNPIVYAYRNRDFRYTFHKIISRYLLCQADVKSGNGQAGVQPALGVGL
As to the kind of experiment: Inhibition of NECA-stimulated production of cAMP in adenosine A2b receptor-expressing cells. In kind it is cell-based. As for the experimental part: CHOK1 cells where a human adenosine A2b receptor had been expressed in excess were plated onto a 24-well plate at a density of 1.5×10^5 cells/well, cultured overnight, and used in the experiment. […] That is, the adhering cells were washed twice with 2 ml/well Krebs-Ringer buffer solution (containing 0.1% BSA; pH 7.4) and pre-incubated for 30 minutes in a volume of 0.5 ml/well. […] After pre-incubation for 15 minutes, the reaction was terminated with 0.1 N HCl in a volume of 300 μl/well. Measurement of intracellular cAMP was carried out using a cAMP enzyme immunoassay kit produced by Amersham.

For data set [6], the system named is SD IGS rats. As to the kind of experiment: Evaluation of defecation-promoting action (Tables 8 and 10). Particulars: 3 mg/kg oral; Table 8, n = 4 cages/group. Type of data set: in vivo, rat. An excerpt: For example, the defecation-promoting actions of 8-phenyltheophylline (“8-PT” in the table below) and 5-[6-amino-8-(3-fluorophenyl)-9H-9-purinyl]-1-methyl-1,2-di hydro-2-pyridinone (Compound II in the table below) disclosed in Example Number 5 described in WO 2001/2400 were as shown below. 8-PT can be easily produced according to the description of Drug Development Research 47: 45-53 (1999), or is easily available as a commercial product (in this test, it was purchased from Sigma).
That is, SD IGS rats (6- to 7-weeks-old, from Charles River) were placed in cages (3 animals/cage) and preliminarily allowed food and water ad libitum and raised for 1 week. On the day of the experiment, their weight was measured, a water-absorbing sheet was placed below each cage, and the animals were fasted but allowed water ad libitum throughout the experiment. Thee hours after fasting was initiated, the fecal pellets were recovered from each cage and observed for abnormality before the experiment, and then the compound suspended in 0.5% (w/v) methyl cellulose (MC) was orally administered in a dose of 5 ml/kg. On one hand, 0.5% (w/v) MC only was orally given to the control group. After administration of the compound, the rats were returned to the cage provided with a new water-absorbing sheet, and 180 minutes after the administration, the fecal pellets on the water-absorbing sheet were recovered from each cage, and the external appearance was observed, and the number of fecal pellets was counted. The number of fecal pellets is expressed per each cage.

As for `Nc1ncc(-c2ccncc2)c(-c2ccco2)n1` [Compound I, 4-(2-Furyl)-5-(4-pyridyl)-2-pyrimidinyl amine], the “Contraction (%) Mean” value in the data set on colon tract (antagonist 0.1 μM) amounted to 71.5%; in the data set with colon tract (antagonist 0.4 μM), 111.0%; with colon tract (antagonist 1.4 μM) it was 122.0%; in the data set with colon tract (antagonist 4.4 μM), 85.9%. Further, the “Inhibition of the suppressing effect of NECA on the contraction (in words)” value with colon tract is recorded as “inhibited the suppressing effect of NECA on the contraction”. The “The number of fecalpellets/3 rats” value in the data set with SD IGS rats [1] (3 mg/kg oral) was 16.33 ± 1.82 fecalpellets/3 rats; with SD IGS rats [1] (10 mg/kg oral), 30.00 ± 2.79 fecalpellets/3 rats; in the data set with SD IGS rats [3] (3 mg/kg, without KW 6002) it was 34.00 ± 1.00 fecalpellets/3 rats; with SD IGS rats [6], 19.75 ± 2.50 fecalpellets/3 rats and 20.75 ± 3.15 fecalpellets/3 rats. Also, the Diarrhea entry in the data set on SD IGS rats [1] (rat, oral) is “did not cause diarrhea”. Further, in the data set on SD IGS rats [1] (rat, oral), the “Defecation-promoting action (in words)” value is given as “evidently higher defecation-promoting action than the A1-selective antagonist KW3902 or the A2a-selective antagonist KW6002”. Also, the figures for the “Urine Volume (g/100 g body weight)” value in data set [2] (3 mg/kg oral) and in data set [2] (10 mg/kg oral) were 0.79 ± 0.09 g/100 g body weight and 1.23 ± 0.13 g/100 g body weight, respectively. In addition, in data set [2] (rat, oral), the “Diuretic action (comparison in words)” value was “weaker diuretic action than the A1-selective antagonist KW3902”. Moreover, the pKi in data set [4] was 6.18. The negative logarithm of the IC50 (pIC50) in data set [5] was 8.08.
`CCn1c(=O)c2c(nc(/C=C/c3ccc(OC)c(OC)c3)n2C)n(CC)c1=O` [KW 6002]: the “Contraction (%) Mean” value with colon tract (antagonist 0.1 μM) is listed as 5.2%; in the data set with colon tract (antagonist 0.4 μM), 1.1%; in the data set on colon tract (antagonist 1.4 μM) it was −2.9%; in the data set with colon tract (antagonist 4.4 μM), −3.9%. Moreover, the “Inhibition of the suppressing effect of NECA on the contraction (in words)” value with colon tract is given as “did not show any inhibitory effect”. The “The number of fecalpellets/3 rats” value is on record as 6.67 ± 1.63 fecalpellets/3 rats in the data set with SD IGS rats [1] (1 mg/kg oral), 7.00 ± 0.86 fecalpellets/3 rats in the data set on SD IGS rats [1] (3 mg/kg oral) and 7.00 ± 1.58 fecalpellets/3 rats in the data set on SD IGS rats [3] (KW 3902 0 mg/kg + KW 6002 (1 mg/kg)). In addition, the “Defecation-promoting action (in words)” value with SD IGS rats [1] (rat, oral) is listed as “low defecation-promoting action”. Besides, the “Urine Volume (g/100 g body weight)” value in data set [2] (1 mg/kg oral) turned out to be 0.72 ± 0.07 g/100 g body weight; in data set [2] (3 mg/kg oral), 0.76 ± 0.05 g/100 g body weight. The negative-log Ki (pKi) in data set [4] is 4.65.
